Test results published in patent US8133729B2, “Biomimetic urothelium” (The University of York, priority 2002, dated 2012).
Entries after “also recorded” stand apart in the source; their conditions may differ.

What was measured:
[1] = target: T1, amiloride-sensitive sodium channels (Homo sapiens, UniProt P37088+P51168+P51170); experiment: Polarised sodium ion channel distribution: short circuit current and transepithelial potential difference on amiloride exposure; assay type: cell-based
T1 construct: The exposure of the apical surface of the urothelial tissue to amiloride reduced both the voltage and the current; endogenous in cells; host or cells: in vitro cultured, differentiated human urothelial cell sheet
T1 sequence (P51170 whole entry): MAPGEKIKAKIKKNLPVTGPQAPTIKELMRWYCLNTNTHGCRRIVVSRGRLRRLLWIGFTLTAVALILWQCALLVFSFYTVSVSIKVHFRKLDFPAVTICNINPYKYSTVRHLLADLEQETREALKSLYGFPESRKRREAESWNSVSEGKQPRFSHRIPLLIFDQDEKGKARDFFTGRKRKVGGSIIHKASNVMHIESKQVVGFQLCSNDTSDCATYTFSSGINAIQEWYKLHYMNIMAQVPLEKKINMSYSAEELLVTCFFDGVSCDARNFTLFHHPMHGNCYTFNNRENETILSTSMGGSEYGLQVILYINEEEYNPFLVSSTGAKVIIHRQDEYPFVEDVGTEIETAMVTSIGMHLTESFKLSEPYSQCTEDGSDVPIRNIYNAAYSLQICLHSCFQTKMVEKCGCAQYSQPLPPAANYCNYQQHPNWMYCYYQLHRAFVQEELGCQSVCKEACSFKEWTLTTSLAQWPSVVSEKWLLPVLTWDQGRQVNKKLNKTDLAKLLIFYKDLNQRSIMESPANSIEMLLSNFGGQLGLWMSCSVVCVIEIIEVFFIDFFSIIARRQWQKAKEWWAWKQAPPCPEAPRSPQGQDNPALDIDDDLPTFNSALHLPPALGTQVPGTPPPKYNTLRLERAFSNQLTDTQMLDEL
T1 sequence (P37088 whole entry): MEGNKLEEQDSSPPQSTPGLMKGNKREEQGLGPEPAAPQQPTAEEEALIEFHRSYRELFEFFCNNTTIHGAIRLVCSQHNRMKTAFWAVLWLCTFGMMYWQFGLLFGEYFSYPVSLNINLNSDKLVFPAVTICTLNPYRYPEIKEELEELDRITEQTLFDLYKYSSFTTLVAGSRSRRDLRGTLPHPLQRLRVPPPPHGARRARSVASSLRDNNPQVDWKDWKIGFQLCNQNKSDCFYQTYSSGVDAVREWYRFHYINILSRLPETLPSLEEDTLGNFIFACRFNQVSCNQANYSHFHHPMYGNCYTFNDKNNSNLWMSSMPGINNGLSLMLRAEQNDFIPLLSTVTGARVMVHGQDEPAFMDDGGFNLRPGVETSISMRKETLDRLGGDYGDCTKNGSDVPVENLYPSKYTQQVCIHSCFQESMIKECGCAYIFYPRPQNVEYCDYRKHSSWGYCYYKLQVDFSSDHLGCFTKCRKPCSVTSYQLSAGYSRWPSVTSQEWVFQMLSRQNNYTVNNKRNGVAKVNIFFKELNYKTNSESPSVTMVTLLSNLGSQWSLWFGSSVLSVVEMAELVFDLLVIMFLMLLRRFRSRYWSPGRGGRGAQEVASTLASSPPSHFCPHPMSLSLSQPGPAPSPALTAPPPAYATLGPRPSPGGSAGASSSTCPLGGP
T1 sequence (P51168 whole entry): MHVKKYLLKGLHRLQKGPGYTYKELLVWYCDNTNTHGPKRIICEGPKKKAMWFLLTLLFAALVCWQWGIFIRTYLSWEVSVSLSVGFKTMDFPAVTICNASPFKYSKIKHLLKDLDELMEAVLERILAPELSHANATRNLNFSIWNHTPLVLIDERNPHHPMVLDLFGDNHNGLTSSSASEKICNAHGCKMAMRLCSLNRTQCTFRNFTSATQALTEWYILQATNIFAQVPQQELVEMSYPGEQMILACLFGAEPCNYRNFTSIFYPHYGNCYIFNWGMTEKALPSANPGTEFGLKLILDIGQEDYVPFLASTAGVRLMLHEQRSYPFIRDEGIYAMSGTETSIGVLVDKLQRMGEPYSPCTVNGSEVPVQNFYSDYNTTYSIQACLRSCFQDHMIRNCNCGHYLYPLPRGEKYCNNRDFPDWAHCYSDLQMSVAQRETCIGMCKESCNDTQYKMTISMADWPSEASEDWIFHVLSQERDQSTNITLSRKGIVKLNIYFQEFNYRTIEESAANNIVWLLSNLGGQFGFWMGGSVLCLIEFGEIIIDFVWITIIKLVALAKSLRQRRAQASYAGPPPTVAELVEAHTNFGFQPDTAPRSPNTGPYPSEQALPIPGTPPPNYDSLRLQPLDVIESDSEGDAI
Procedure: (§1) Polarised Sodium Ion Channel Distribution. In order to determine the presence and correct spatial location of sodium ion channels, short circuit current and transepithelial potential difference were measured under voltage and current clamped conditions respectively.

Na^+—K^+ ATPase = experiment: Short circuit current and transepithelial potential difference on ouabain exposure; assay type: cell-based, human
Procedure: as §1

[2] = exposure of basal surface of in vitro cultivated urothelium
[3] = exposure of apical surface of in vitro cultivated urothelium

Row | Compound | effect on transepithelial potential difference (voltage) ([1]; exposure of apical surface of in vitro cultivated urothelium, current clamped) | effect on short circuit current ([1]; exposure of apical surface of in vitro cultivated urothelium, voltage clamped) | effect on short circuit current [1, 2] | effect on transepithelial potential difference (voltage) [1, 2] | effect on short circuit current (Na^+—K^+ ATPase; [3]) | effect on transepithelial potential difference (voltage) (Na^+—K^+ ATPase; [3]) | effect on short circuit current (Na^+—K^+ ATPase; [2]) | effect on transepithelial potential difference (voltage) (Na^+—K^+ ATPase; [2])
1 | N=C(N)NC(=O)c1nc(Cl)c(N)nc1N [amiloride] | reduced both the voltage and the current in a dose-dependent manner | dose-responsive decrease in short circuit current; also recorded: reduced both the voltage and the current in a dose-dependent manner | did not affect either the voltage or the current | did not affect either the voltage or the current |  |  |  | 
2 | C[C@@H]1O[C@@H](O[C@H]2C[C@@H](O)[C@]3(CO)[C@H]4[C@H](O)C[C@]5(C)[C@@H](C6=CC(=O)OC6)CC[C@]5(O)[C@@H]4CC[C@]3(O)C2)[C@H](O)[C@H](O)[C@H]1O [ouabain] |  |  |  |  | only a minor effect on the measured voltage and current | only a minor effect on the measured voltage and current | marked reduction of both voltage and current | marked reduction of both voltage and current
